One series deals with Caco-2 cells. Kind of series: MTT viability assay, colorectal cancer cells Caco-2. Type of series: cell-based, human. As to conditions: for SI, Caco-2: CC50 CCD 841 CoTr / CC50 Caco-2; for CC50: Homo sapiens, Caco-2, MTT, 24 h, read-out: CC50 ± SD, Caco-2. Here is the method:
(§1) The cytotoxic effects of ten newly synthesized N-Mannich bases were assessed on the normal human intestinal epithelium (CCD 841 CoTr) and cancer cell lines: gastric cancer (EPG) and four colorectal cancer lines (Caco-2, LoVo, LoVo/Dx, and HT-29). Cell viability was evaluated using the MTT assay in accordance with Annex C of ISO 10993-5 [33].
(§2) The biological activity of the newly synthesized compounds was assessed in the context of anticancer activity. For this purpose, several gastrointestinal cancer lines were selected: gastric cancer (EPG 257, which belongs to the collection of the Laboratory of Cell Culture and Advanced Therapy at the University of Environmental and Life Sciences in Wrocław), and four colorectal cancer cell lines (LoVo, Caco-2, and HT-29) were obtained from the European Collection of Authenticated Cell Cultures (ECACC) and were delivered by Sigma-Aldrich, a certified distributor for the biobank. Additionally, LoVo cells were used to develop a doxorubicin-resistant subline, referred to as LoVo/Dx. Resistance was induced through gradual adaptation to increasing concentrations of doxorubicin, starting from 0.1 µg/mL and incrementally raised to 0.8 µg/mL. After reaching the maximum concentration, the cells were maintained in a medium containing 0.4 µg/mL doxorubicin for a period of three months to stabilize the resistant phenotype. […] The resulting LoVo/Dx subline, resistant to doxorubicin, was cultured in DMEM/F-12 medium and utilized in assays evaluating the effectiveness of novel compounds against multidrug-resistant cancer cells. […] The non-cancerous cell control was normal colonic epithelial cells (CCD 841 CoTr from American Type Culture Collection, (ATCC, Manassas, VA, USA)). Cell cultures were performed under standard conditions (5% CO2, 95% humidity, and 37 °C). Each cell line was cultured in the recommended medium: (1) HT-29 in McCoy’s 5a, (2) Caco-2 in Minimal Essential Medium (MEM, Biological Industries, Beit Haemek, Israel), (3) CCD 841 CoTr in Dulbecco’s Modified Eagle Medium (DMEM, Biological Industries, Beit Haemek, Israel), (4) LoVo in Dulbecco’s Modified Eagle Medium/F-12 (DMEM/F-12; Biological Industries, Beit Haemek, Israel), (5) LoVo/Dx in DMEM/F-12, and (6) EPG in DMEM. Culture media were supplemented with 10% fetal bovine serum (FBS, Sigma-Aldrich, Darmstadt, Germany) and antibiotics (penicillin and streptomycin; Sigma-Aldrich, Darmstadt, Germany). For assays, trypsinized (TrypLE solution, Thermo Fisher Scientific, Waltham, MA, USA) cells were seeded at appropriate densities of 10,000 cells per well for MTT and determination of apoptotic and necrotic cell numbers; 30,000 cells per well for the rhodamine accumulation assay; and 500,000 cells per well for ELISA tests.
(§3) The cytotoxicity of the compounds and drugs used as controls was assessed using the MTT assay. The assay also included a DMSO control. After seeding and allowing the cells to adhere overnight, they were treated with the tested compounds and drugs for another 24 h. After this time, the supernatant was removed, and a 1 mg/mL MTT solution was added for 2 h in 5% CO2, 95% humidity, at 37 °C. The supernatant was then removed, and isopropanol was added to dissolve the purple crystals over 30 min by shaking. Absorbance was measured at 570 nm in a Multiskan GO microplate reader (Thermo Fisher Scientific; Waltham, MA, USA). All reagents used for the assays were purchased from Sigma-Aldrich, Darmstadt, Germany.
(§4) Biological assays were performed in three independent replicates, each involving four samples. ELISA determinations were repeated three times.

The target in series [1] is T1, P-glycoprotein (LoVo/Dx cells) (Homo sapiens, UniProt P08183).
T1 construct: intracellular accumulation of rhodamine 123 (a fluorescent P-gp substrate analog) in P-gp-expressing cell lines (HT-29, LoVo, and LoVo/Dx); endogenous in cells; host or cells: HT-29, LoVo (ECACC via Sigma-Aldrich); LoVo/Dx (doxorubicin-selected subline of LoVo)
Kind of series: Rhodamine-123 accumulation assay in LoVo/Dx. The conditions noted are these: 50 µM, 24 h; versus untreated control. Type of series: cell-based. From the text:
(§5) This test measured the intracellular accumulation of rhodamine 123 (a fluorescent P-gp substrate analog) in P-gp-expressing cell lines (HT-29, LoVo, and LoVo/Dx). Following accumulation and efflux phases, the fluorescence of rhodamine 123 (Rh-123) was quantified using spectrofluorimetry. The results are illustrated in Figure 3. Verapamil, a calcium channel blocker, served as a positive control for P-gp inhibition due to its well-established ability to inhibit P-gp activity. Verapamil binds to P-gp, inhibiting its function, which increases the intracellular concentration of chemotherapeutic drugs and other P-gp substrates.
(§6) The activity was measured for cells treated with a 50 µM concentration of the compounds and drugs in the recommended media for each cell line (without FBS) in a volume of 100 µL for 24 h. In this test, verapamil served as the control. After the incubation period, a 10 mM Rhodamine-123 (Rh-123) solution was prepared in a 1:1 DMSO mixture. […] Fluorescence was measured at 485 nm excitation and 538 nm emission using a Biotek Synergy H1 microplate reader (Agilent Technologies, Inc., Santa Clara, CA, USA). […]
(§7) Results are expressed as the mean ± SD (standard deviation) relative to the respective control (E/E0), where E represents the mean result for the measured sample, and E0 represents the mean result for the control. […]

Series [2] can be described thus: MTT viability assay, normal colonic epithelial cells. Type of series: cell-based, human. As to conditions: human, CCD 841 CoTr normal colonic epithelial cells, Non-toxic = no toxicity in tested range 1–500 μM, read-out: CC50 ± SD, CCD 841 CoTr. The procedure:
as §1, §2, §3, §4
A general note: Formazan colour is commonly taken as a measure of viable cells.

The test system of the next series is LoVo cells. Nature of the series: MTT viability assay, colorectal cancer cells LoVo. The conditions noted are these: for SI, LoVo: CC50 CCD 841 CoTr / CC50 LoVo. Type of series: cell-based, human. The procedure:
as §1, §2, §3, §4

The target of series [3] is T2, P-glycoprotein (HT-29 cells) (Homo sapiens, UniProt P08183).
T2 construct: intracellular accumulation of rhodamine 123 (a fluorescent P-gp substrate analog) in P-gp-expressing cell lines (HT-29, LoVo, and LoVo/Dx); endogenous in cells; host or cells: HT-29, LoVo (ECACC via Sigma-Aldrich); LoVo/Dx (doxorubicin-selected subline of LoVo)
Kind of series: Rhodamine-123 accumulation assay in HT-29. Format: cell-based. As to conditions: 50 µM, 24 h; versus untreated control.
Description: as §5, §6, §7

The subject of the next series is LoVo/Dx cells. Kind of series: MTT viability assay, doxorubicin-resistant LoVo/Dx. Format: cell-based, human. The conditions noted are these: for SI, LoVo/Dx: CC50 CCD 841 CoTr / CC50 LoVo/Dx; for CC50: Homo sapiens, LoVo/DX, MTT, 24 h, read-out: CC50 ± SD, LoVo/Dx. The procedure: as §1, §2, §3, §4
The test system of the next series is HT-29 cells. Kind of series: MTT viability assay, colorectal cancer cells HT-29. Type of series: cell-based, human. The conditions noted are these: for SI, HT-29: CC50 CCD 841 CoTr / CC50 HT-29; for CC50: Homo sapiens, HT-29, MTT, 24 h, read-out: CC50 ± SD, HT-29. The procedure: as §1, §2, §3, §4
Series [4] concerns the target T3, P-glycoprotein (LoVo cells) (Homo sapiens, UniProt P08183).
T3 construct: intracellular accumulation of rhodamine 123 (a fluorescent P-gp substrate analog) in P-gp-expressing cell lines (HT-29, LoVo, and LoVo/Dx); endogenous in cells; host or cells: HT-29, LoVo (ECACC via Sigma-Aldrich); LoVo/Dx (doxorubicin-selected subline of LoVo)
Nature of the series: Rhodamine-123 accumulation assay in LoVo. Type of series: cell-based. As to conditions: 50 µM, 24 h; versus untreated control.
Description: as §5, §6, §7

Marks after values point to notes of the source that are not given here.

T1 sequence (P08183 whole entry): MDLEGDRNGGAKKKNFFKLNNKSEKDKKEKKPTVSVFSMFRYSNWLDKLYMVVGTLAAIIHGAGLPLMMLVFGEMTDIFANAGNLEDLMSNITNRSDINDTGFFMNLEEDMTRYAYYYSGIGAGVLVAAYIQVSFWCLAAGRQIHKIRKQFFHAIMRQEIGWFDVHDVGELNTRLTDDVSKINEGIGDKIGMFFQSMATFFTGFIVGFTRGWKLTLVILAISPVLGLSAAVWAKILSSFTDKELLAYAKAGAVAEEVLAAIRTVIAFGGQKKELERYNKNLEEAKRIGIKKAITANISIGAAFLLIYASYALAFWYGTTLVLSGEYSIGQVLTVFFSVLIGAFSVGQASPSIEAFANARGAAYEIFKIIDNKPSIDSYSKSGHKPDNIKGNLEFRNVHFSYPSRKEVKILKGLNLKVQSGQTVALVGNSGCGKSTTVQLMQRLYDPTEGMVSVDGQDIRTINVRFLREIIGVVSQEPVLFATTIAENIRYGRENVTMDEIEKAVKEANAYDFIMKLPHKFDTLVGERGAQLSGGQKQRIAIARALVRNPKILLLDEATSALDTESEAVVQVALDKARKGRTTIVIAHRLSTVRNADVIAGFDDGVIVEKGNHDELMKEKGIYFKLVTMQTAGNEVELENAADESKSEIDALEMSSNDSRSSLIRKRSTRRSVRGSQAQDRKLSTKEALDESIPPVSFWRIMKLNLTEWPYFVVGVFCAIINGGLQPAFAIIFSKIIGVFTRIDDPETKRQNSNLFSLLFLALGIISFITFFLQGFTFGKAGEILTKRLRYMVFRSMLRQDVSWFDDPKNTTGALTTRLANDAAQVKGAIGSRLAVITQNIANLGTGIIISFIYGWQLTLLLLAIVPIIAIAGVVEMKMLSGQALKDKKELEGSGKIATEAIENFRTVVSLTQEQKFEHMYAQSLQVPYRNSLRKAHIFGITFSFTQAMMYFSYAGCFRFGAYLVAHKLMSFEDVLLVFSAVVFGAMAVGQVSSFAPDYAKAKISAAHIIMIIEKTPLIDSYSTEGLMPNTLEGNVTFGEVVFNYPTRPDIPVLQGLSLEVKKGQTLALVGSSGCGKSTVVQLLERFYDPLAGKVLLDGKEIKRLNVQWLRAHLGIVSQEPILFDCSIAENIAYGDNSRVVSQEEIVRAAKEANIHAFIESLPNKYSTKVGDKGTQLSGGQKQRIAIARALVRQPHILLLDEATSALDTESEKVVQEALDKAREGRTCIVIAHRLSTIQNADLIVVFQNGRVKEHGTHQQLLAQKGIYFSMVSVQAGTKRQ
T2 sequence (P08183 whole entry): as above
T3 sequence (P08183 whole entry): as above

For the compound `Cc1ccc(N2CCN(Cn3nc(CNC(=O)c4c(C)cc(C)nc4S)n(-c4ccccc4)c3=S)CC2)cc1` [Compound 6], in the series with Caco-2 cells, the “SI, Caco-2” value came to 5.16 and the CC50 was 75.1 ± 5.1 µM. Besides, in series [1], the “Increase of Rh-123 accumulation, LoVo/Dx” value turned out to be 3.5 fold. Also, the CC50 at 24 h in series [2] amounted to 388 ± 6.5 µM. Further, the “SI, LoVo” value in the series on LoVo cells came out at 2.37. For the same compound, the CC50 with LoVo cells (Homo sapiens, LoVo, MTT, 24 h, Non-toxic = no toxicity in tested range 1–500 μM, read-out: CC50 ± SD, LoVo) came to 163 ± 4.6 µM. The “Increase of Rh-123 accumulation, HT-29” value in series [3] is reported as 1.46 fold. In addition, in the series on LoVo/Dx cells, the “SI, LoVo/Dx” value was 1.99 and the CC50 was determined as 195 ± 5.7 µM. Moreover, in the series with HT-29 cells, the “SI, HT-29” value is listed as 3.16 and the CC50 amounted to 123 ± 3.9 µM. For the same compound, in series [4], the “Increase of Rh-123 accumulation, LoVo” value amounted to 2.55 fold.

For `Cc1cc(C)c(C(=O)NCc2nn(CN3CCN(c4cccc(Cl)c4)CC3)c(=S)n2-c2ccccc2)c(S)n1` [Compound 5, 4,6-dimethyl-N-[(4-phenyl-5-thioxo-2-{[4-(3-chlorophenyl)piperazinyl]methyl}-4,5-dihydro-1H-1,2,4-triazol-3-yl)methyl]-2-sulfanylpyridine-3-carboxamide], in the series with Caco-2 cells, the “SI, Caco-2” value is on record as 0.97 and the CC50 is 228 ± 5.2 µM. The “Increase of Rh-123 accumulation, LoVo/Dx” value in series [1] was 4.2 fold. In addition, in series [2], the CC50 at 24 h is 221 ± 2.4 µM. Also, in the series on LoVo cells, the “SI, LoVo” value was >>1 ^c. In addition, the “CC50 ± SD, LoVo” value with LoVo cells (MTT, 24 h, Non-toxic = no toxicity in tested range 1–500 μM) was “Non-toxic ^b”. Besides, the “Increase of Rh-123 accumulation, HT-29” value in series [3] was 1.23 fold. For the same compound, in the series with LoVo/Dx cells, the “SI, LoVo/Dx” value amounted to 1.20 and the CC50 was 184 ± 2.7 µM. Moreover, in the series on HT-29 cells, the “SI, HT-29” value is recorded as 2.15 and the CC50 was found to be 102 ± 2.7 µM. The “Increase of Rh-123 accumulation, LoVo” value in series [4] turned out to be 2.8 fold.

For the origin of these results see article PMC12294558, “New 1,2,4-Triazole Derivatives with a N-Mannich Base Structure Based on a 4,6-Dimethylpyridine Scaffold as Anticancer Agents: Design, Synthesis, Biological Evaluation, and Molecular Modeling” (International Journal of Molecular Sciences, 2025).
